In patent US20150105252A1, “SUBSTITUTED PYRAZOLES AS HERBICIDES” (E I DU PONT DE NEMOURS AND COMPANY, priority 2013, published 2015):

Assays:
morningglory [1] = experiment: Test A postemergence; format: in vivo, Ipomoea spp.
In short: (§1)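 After sowing in a sand–loam mix, pots received compound preemergence by directed soil spray, or postemergence once plants reached the one- to two-leaf stage (2–10 cm). Formulation contained surfactant in a non-phytotoxic solvent. Injury was scored visually after ~10 greenhouse days, 0–100 scale.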

velvetleaf [2] = experiment: Test C preemergence; format: in vivo, Abutilon theophrasti
In short: (§2)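 Seeds sown in loam–sand blend and treated preemergence with test chemicals in non-phytotoxic solvent with surfactant; postemergence plants in peat-based medium, treated at 2–18 cm (1- to 4-leaf stage). Greenhouse 13 to 15 days, then visual rating versus controls, 0 (no effect) to 100 (complete control).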

sedge, umbrella = experiment: Test B flood; format: in vivo, Cyperus difformis; details: 250 g ai/ha, visual rating on 0 to 100 scale (0 no effect, 100 complete control), 13 to 15 days
In short: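 Visual ratings on a 0–100 scale, where 0 means no effect and 100 means complete control, were assigned by comparison with controls 13 to 15 days after treatment. Compounds went into paddy water over 2-leaf plants flooded to 3 cm.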

soybean = experiment: Test C preemergence; format: in vivo, Glycine max
In short: as §2

lambsquarters = experiment: Test C preemergence; format: in vivo, Chenopodium album
Description: Seeds of plant species selected from blackgrass (Alopecurus myosuroides), ryegrass, Italian (Italian ryegrass, Lolium multiflorum), wheat (winter wheat, Triticum aestivum), galium (catchweed bedstraw, Galium aparine), corn (Zea mays), crabgrass, large (large crabgrass, Digitaria sanguinalis), foxtail, giant (giant foxtail, Setaria faberii), johnsongrass (Sorghum halepense), lambsquarters (Chenopodium album), morningglory (Ipomoea coccinea), nutsedge, yellow (yellow nutsedge, Cyperus esculentus), pigweed (redroot pigweed, Amaranthus retroflexus), ragweed (common ragweed, Ambrosia elation), soybean (Glycine max), barnyardgrass (Echinochloa crus-galli), oilseed rape (Brassica napus), waterhemp (common waterhemp, Amaranthus rudis), oat, wild (wild oat, Avena fatua), kochia (Kochia scoparia), Surinam grass (Brachiaria decumbens), foxtail, green (green foxtail, Setaria viridis), goosegrass (Eleusine indica), bromegrass, downy (downy bromegrass, Bromus tectorum), nightshade (eastern black nightshade, Solanum ptycanthum), cocklebur (common cocklebur, Xanthium strumarium), cupgrass, woolly (woolly cupgrass, Eriochloa villosa), bermudagrass (Cynodon dactylon), sunflower, (common oilseed sunflower, Helianthus annuus), Russian thistle (Salsola kali), and velvetleaf (Abutilon theophrasti) were planted into a blend of loam soil and sand and treated preemergence with test chemicals formulated in a non-phytotoxic solvent mixture which included a surfactant.
At the same time, plants selected from these crop and weed species and also chickweed (common chickweed, Stellaria media), canarygrass (littleseed canarygrass, Phalaris minor), and deadnettle (henbit deadnettle, Lamium amplexicaule), were planted in pots containing Redi-Earth® planting medium (Scotts Company, 14111 Scottslawn Road, Marysville, Ohio 43041) comprising spaghnum peat moss, vermiculite, wetting agent and starter nutrients and treated with postemergence applications of test chemicals formulated in the same manner. Plants ranged in height from 2 to 18 cm (1- to 4-leaf stage) for postemergence treatments. Treated plants and controls were maintained in a greenhouse for 13 to 15 days, after which time all species were compared to controls and visually evaluated. Plant response ratings, summarized in Table C, are based on a scale of 0 to 100 where 0 is no effect and 100 is complete control. A dash (-) response means no test result.

wheat = experiment: Test A postemergence; format: in vivo, Triticum aestivum
In short: as §1

morningglory [3] = experiment: Test C preemergence; format: in vivo, Ipomoea coccinea
In short: as §2

barnyardgrass = experiment: Test C preemergence; format: in vivo, Echinochloa crus-galli
In short: as §2

velvetleaf [4] = experiment: Test A postemergence; format: in vivo, Abutilon theophrasti
In short: as §1

[5] = Postemergence, 500 g ai/ha, 0 to 100 scale (0 no effect, 100 complete control)
[6] = postemergence, 125 g ai/ha, about 10 days, visual rating on 0 to 100 scale (0 no effect, 100 complete control)
[7] = preemergence, 31 g ai/ha, visual rating, scale 0 to 100 (0 no effect, 100 complete control), 13 to 15 days
[8] = preemergence, 62 g ai/ha, scale 0 to 100 (0 no effect, 100 complete control), 13 to 15 days
[9] = preemergence, 125 g ai/ha, 13 to 15 days, scale 0 to 100, 0 = no effect, 100 = complete control
[10] = preemergence, 250 g ai/ha, scale 0 to 100, 0 is no effect, 100 is complete control
[11] = Preemergence, 16 g ai/ha, scale 0 to 100
[12] = Postemergence, 125 g ai/ha, 0 to 100 scale, 0 no effect, 100 complete control

SMILES: O=C(NC1CC1)c1cc(CCF)n(Cc2ccnc(C(F)(F)F)c2)n1 [Compound 176]
- Morningglory plant response rating (morningglory [1]; [5]): 90
- Morningglory plant response rating (morningglory [1]; [6]): 90
- Velvetleaf plant response rating (velvetleaf [2]; [7]): 30
- Velvetleaf plant response rating (velvetleaf [2]; [8]): 75
- Plant response rating, Velvetleaf (velvetleaf [2]; [9]): 90
- Velvetleaf plant response rating (velvetleaf [2]; [10]): 100
- Plant response rating, Sedge, Umbrella (sedge, umbrella): 80
- Soybean plant response rating (soybean; [7]): 30
- Soybean plant response rating (soybean; [8]): 75
- Plant response rating, Soybean (soybean; [9]): 98
- Soybean plant response rating (soybean; [10]): 98
- Lambsquarters plant response rating (lambsquarters; [7]): 80
- Lambsquarters plant response rating (lambsquarters; [8]): 98
- Plant response rating, Lambsquarters (lambsquarters; [9]): 100
- Lambsquarters plant response rating (lambsquarters; [10]): 100
- Wheat plant response rating (wheat; [5]): 60
- Wheat plant response rating (wheat; [6]): 10
- Morningglory plant response rating (morningglory [3]; [7]): 65
- Morningglory plant response rating (morningglory [3]; [8]): 98
- Plant response rating, Morningglory (morningglory [3]; [9]): 98
- Morningglory plant response rating (morningglory [3]; [10]): 100
- Barnyardgrass plant response rating (barnyardgrass; [7]): 25
- Barnyardgrass plant response rating (barnyardgrass; [8]): 100
- Plant response rating, Barnyardgrass (barnyardgrass; [9]): 100
- Barnyardgrass plant response rating (barnyardgrass; [10]): 100
- Velvetleaf plant response rating (velvetleaf [4]; [5]): 90
- Velvetleaf plant response rating (velvetleaf [4]; [6]): 40

SMILES: CCNC(=O)c1cc(CCF)n(Cc2ccnc(C(F)(F)F)c2)n1 [Compound 178]
- Morningglory plant response rating (morningglory [1]; [5]): 100
- Morningglory plant response rating (morningglory [1]; [6]): 70
- Plant response rating, Velvetleaf (velvetleaf [2]; [11]): 10
- Velvetleaf plant response rating (velvetleaf [2]; [7]): 15
- Velvetleaf plant response rating (velvetleaf [2]; [8]): 55
- Plant response rating, Velvetleaf (velvetleaf [2]; [9]): 70
- Plant response rating, Sedge, Umbrella (sedge, umbrella): 85
- Plant response rating, Soybean (soybean; [11]): 5
- Soybean plant response rating (soybean; [7]): 5
- Soybean plant response rating (soybean; [8]): 40
- Plant response rating, Soybean (soybean; [9]): 75
- Plant response rating, Lambsquarters (lambsquarters; [11]): 65
- Lambsquarters plant response rating (lambsquarters; [7]): 80
- Lambsquarters plant response rating (lambsquarters; [8]): 100
- Plant response rating, Lambsquarters (lambsquarters; [9]): 100
- Wheat plant response rating (wheat; [5]): 30
- Wheat plant response rating (wheat; [6]): 0
- Plant response rating, Morningglory (morningglory [3]; [11]): 15
- Morningglory plant response rating (morningglory [3]; [7]): 35
- Morningglory plant response rating (morningglory [3]; [8]): 95
- Plant response rating, Morningglory (morningglory [3]; [9]): 100
- Plant response rating, Barnyardgrass (barnyardgrass; [11]): 0
- Barnyardgrass plant response rating (barnyardgrass; [7]): 10
- Barnyardgrass plant response rating (barnyardgrass; [8]): 60
- Plant response rating, Barnyardgrass (barnyardgrass; [9]): 100
- Velvetleaf plant response rating (velvetleaf [4]; [5]): 60
- Velvetleaf plant response rating (velvetleaf [4]; [6]): 40

SMILES: CCCc1cc(C(=O)NOC(C)C)nn1Cc1cc(C(F)(F)F)nn1C [Compound 203]
- Morningglory plant response rating (morningglory [1]; [12]): 50
- Morningglory plant response rating (morningglory [1]; [5]): 90
- Velvetleaf plant response rating (velvetleaf [2]; [7]): 30
- Velvetleaf plant response rating (velvetleaf [2]; [8]): 98
- Plant response rating, Velvetleaf (velvetleaf [2]; [9]): 100
- Velvetleaf plant response rating (velvetleaf [2]; [10]): 100
- Plant response rating, Sedge, Umbrella (sedge, umbrella): 95
- Soybean plant response rating (soybean; [7]): 5
- Soybean plant response rating (soybean; [8]): 5
- Plant response rating, Soybean (soybean; [9]): 35
- Soybean plant response rating (soybean; [10]): 55
- Lambsquarters plant response rating (lambsquarters; [7]): 75
- Lambsquarters plant response rating (lambsquarters; [8]): 100
- Plant response rating, Lambsquarters (lambsquarters; [9]): 100
- Lambsquarters plant response rating (lambsquarters; [10]): 100
- Wheat plant response rating (wheat; [12]): 70
- Wheat plant response rating (wheat; [5]): 80
- Morningglory plant response rating (morningglory [3]; [7]): 30
- Morningglory plant response rating (morningglory [3]; [8]): 95
- Plant response rating, Morningglory (morningglory [3]; [9]): 85
- Morningglory plant response rating (morningglory [3]; [10]): 100
- Barnyardgrass plant response rating (barnyardgrass; [7]): 35
- Barnyardgrass plant response rating (barnyardgrass; [8]): 98
- Plant response rating, Barnyardgrass (barnyardgrass; [9]): 100
- Barnyardgrass plant response rating (barnyardgrass; [10]): 100
- Velvetleaf plant response rating (velvetleaf [4]; [12]): 30
- Velvetleaf plant response rating (velvetleaf [4]; [5]): 90
